The values that follow come from the OligoGym collection.

Where “and” joins values, the source holds several entries; their conditions need not be identical. Equal values may be shown once. After the bases stand the sugars from the 5' end (letter, count) and the backbone: PS all phosphorothioate, else s phosphorothioate and o phosphodiester by linkage. Methylation of C is not given here. e = 2'-O-(2-methoxyethyl) (MOE); k = constrained ethyl (cEt); d = 2'-deoxy (DNA)

The target of one data set is SOD1. The following applies: ASO.
The next data set deals with MALAT1. The following applies: ASO, A431, 0.005 µM.

“TCAGACTACATCCAAGG (sugars e2 k2 d9 k2 e2, PS)”: the target mRNA inhibition with SOD1 (HepG2, 0.1875 µM) was determined as 0%; with SOD1 (HepG2, 0.75 µM), 47%; with SOD1 (HepG2, 3 µM), 75%; with SOD1 (HepG2, 4 µM) it was 78%; with SOD1 (HepG2, 12 µM), 90%.
For the sequence “AGGAGACTACGACGCAAACC (sugars e5 d10 e5, PS)”, the target mRNA inhibition with SOD1 (HepG2, 4 µM) was 35%.
With “TAATAAGTGCCATACAG (sugars e2 k2 d8 k2 e3, PS)”, the target mRNA inhibition with SOD1 (HepG2, 5 µM) amounted to 22%.
As to “CCCAATTACACCACAAG (sugars e2 k2 d8 k2 e3, PS)”, the target mRNA inhibition with SOD1 (HepG2, 4 µM) came out at 63%.
Turning to “CAGTTTCTCACTACAGG (sugars e2 k2 d9 k2 e2, PS)”, in the data set with SOD1 (HepG2, 5 µM), the target mRNA inhibition was 38%.
In the case of “TGCCCTGCACTGGGCCGTCG (sugars e5 d10 e5, PS)”, the target mRNA inhibition in the data set with SOD1 (HepG2, 4 µM) was 38%.
In the case of “TTGGATTCTTTTAATAG (sugars e2 k2 d9 k2 e2, PS)”, the target mRNA inhibition with SOD1 (HepG2, 5 µM) turned out to be 8%.
“AGTGCCATACAGGGTTT (sugars e3 k2 d7 k2 e3, PS)”: in the data set with SOD1 (HepG2, 3 µM), the target mRNA inhibition turned out to be 9%.
Regarding “CTGACAAGTTTAATACC (sugars e3 k2 d7 k2 e3, PS)”, in the data set with SOD1 (HepG2, 3 µM), the target mRNA inhibition worked out at 10%.
For “ATAATAAGTGCCATACA (sugars e2 k2 d8 k2 e3, PS)”, the target mRNA inhibition with SOD1 (HepG2, 5 µM) turned out to be 27%.
Regarding “CATGCCTCTCTTCATCC (sugars e3 k2 d7 k2 e3, PS)”, the target mRNA inhibition in the data set with SOD1 (HepG2, 3 µM) turned out to be 14%.
For “TCTGGATAGAGGATTAA (sugars e3 k2 d7 k2 e3, PS)”, the target mRNA inhibition with SOD1 (HepG2, 3 µM) amounted to 25%.
With “AAACAGACATTTTAACTGAG (sugars e5 d10 e5, PS)”, in the data set with SOD1 (HepG2, 5 µM), the target mRNA inhibition was determined as 4%.
For “CAGGATAACAGATGAGT (sugars e2 k2 d8 k2 e3, PS)”, the target mRNA inhibition with SOD1 (HepG2, 0.1875 µM) is 62%; with SOD1 (HepG2, 0.75 µM), 89%; with SOD1 (HepG2, 3 µM), 95%; with SOD1 (HepG2, 4 µM), 95%; in the data set with SOD1 (HepG2, 12 µM), 95%.
Turning to “CTTTTTCATGGACCACCAGT (sugars e5 d10 e5, PS)”, in the data set with SOD1 (HepG2, 5 µM), the target mRNA inhibition was 9%.
As to “CTGGATAGAGGATTAAA (sugars e3 k2 d7 k2 e3, PS)”, the target mRNA inhibition in the data set with SOD1 (HepG2, 3 µM) came out at 26%.
In the case of “GCCTCATAATAAGTGCC (sugars e2 k2 d8 k2 e3, PS)”, the target mRNA inhibition with SOD1 (HepG2, 5 µM) is 41%.
“CGCTGCAGGAGACTACG (sugars e3 k2 d7 k2 e3, PS)”: in the data set with SOD1 (HepG2, 3 µM), the target mRNA inhibition came to 0%.
Turning to “CTTCCAAGTGATCATAA (sugars e2 k2 d8 k2 e3, PS)”, in the data set with SOD1 (HepG2, 5 µM), the target mRNA inhibition amounted to 40%.
The same measure, in the same setting: under “GCCATACAGGGTTTTTA (sugars e2 k2 d9 k2 e2, PS)” stands 26%.
On to “AGTGTTTAATGTTTATC (sugars e2 k2 d8 k2 e3, PS)”, for which the target mRNA inhibition with SOD1 (HepG2, 0.1875 µM) worked out at 46%; in the data set with SOD1 (HepG2, 0.75 µM), 74%; with SOD1 (HepG2, 3 µM), 84%; with SOD1 (HepG2, 5 µM) it was 88%; in the data set with SOD1 (HepG2, 12 µM), 81%.
With AAGGATGTATATAGTT (sugars k3 d10 k3, PS), the target mRNA inhibition with MALAT1 stood at 21%.
The same measure, in the same setting: the figure for AAGAGCCAAGCACTCA (sugars k3 d10 k3, PS) is 12%.
On the same count and under the same terms, under AAGGCTTCAGTCCCCT (sugars k3 d10 k3, PS) stands 14%; under ATCTTAACTCAAAGTC (sugars k3 d10 k3, PS), 39%; under TGTCAATTAATGCTAG (sugars k3 d10 k3, PS), 42%.
Same read-out and setting: the figure for TCAGCCTTTATCACTC (sugars k3 d10 k3, PS) is 13%; for ACTTTAAGCCTTCGGT (sugars k3 d10 k3, PS) it is 13%; for TAGAGGGCCTCTATTG (sugars k3 d10 k3, PS) it is 39%.
TCACCGGAATTCGATC (sugars k3 d10 k3, PS): in the data set with MALAT1, the target mRNA inhibition is -263%.
The same measure, in the same setting: under ATCAGTAGTAAGAATC (sugars k3 d10 k3, PS) stands 23%.
Consider ACCCCCACGCCAACAC (sugars k3 d10 k3, PS), for which the target mRNA inhibition in the data set with MALAT1 was determined as 23%.
Consider CCAGTAGGCCAGACCA (sugars k3 d10 k3, PS), for which the target mRNA inhibition in the data set with MALAT1 is 13%.
Still for that read-out and setting: the figure for CTGCAATCATAAACTA (sugars k3 d10 k3, PS) is 10%; for AAACGAATTCAGGGTG (sugars k3 d10 k3, PS) it is 23%; for TACCTTAACATCTTGT (sugars k3 d10 k3, PS) it is 14%.
On the same count and under the same terms, the figure for CTAAAGGCTTCAGTCC (sugars k3 d10 k3, PS) is 23%.
On to TACCGCACAGCTCGGG (sugars k3 d10 k3, PS), for which the target mRNA inhibition with MALAT1 is 20%.
On the same count and under the same terms, the figure for CGTCATGGATTTCAAG (sugars k3 d10 k3, PS) is 40%; for ACCTGGGCTCCCGGAG (sugars k3 d10 k3, PS) it is 19%; for GTTAGGTATGAGCTTC (sugars k3 d10 k3, PS) it is 15%.
On the same count and under the same terms, the figure for CTGATTATCCTGATAT (sugars k3 d10 k3, PS) is 33%; for CTCACAAAACCCCCGG (sugars k3 d10 k3, PS) it is 18%; for CTGCAGGCTATTACCT (sugars k3 d10 k3, PS) it is -6%.
On the same count and under the same terms, the figure for AGAGGGCCTCTATTGC (sugars k3 d10 k3, PS) is 33%.
Turning to TCTTACTGGGTCTGGC (sugars k3 d10 k3, PS), in the data set with MALAT1, the target mRNA inhibition worked out at 45%.
Still for that read-out and setting: the figure for TACGAAACTCCCCCAT (sugars k3 d10 k3, PS) is 6%; for ATGACGCAATTCTCCC (sugars k3 d10 k3, PS) it is 15%; for TTCTACCGTTTTTCAG (sugars k3 d10 k3, PS) it is 10%.
Still for that read-out and setting: the figure for GTAGTTGTATTAATCT (sugars k3 d10 k3, PS) is 68% and 65%; for AGCATTCCTTCGGATG (sugars k3 d10 k3, PS) it is 14%.
Consider TCCCATAACTGATCTG (sugars k3 d10 k3, PS), for which the target mRNA inhibition in the data set with MALAT1 turned out to be 31%.
Same read-out and setting: under GATTTGAGCTGCAAAC (sugars k3 d10 k3, PS) stands 0%; under CCTGCGACTTGCTCCC (sugars k3 d10 k3, PS), 20%; under ACCAACCCCCAGTTCA (sugars k3 d10 k3, PS), 28%.
The same measure, in the same setting: under CGCAATTCTCCCTGCG (sugars k3 d10 k3, PS) stands 23%; under GAAGCATACCTTAACA (sugars k3 d10 k3, PS), 5%; under AACTTCAACATTTGGC (sugars k3 d10 k3, PS), 56%.
The same measure, in the same setting: under CAAGATTCATGAGTAT (sugars k3 d10 k3, PS) stands 34%; under CGGAATTCGATCACCT (sugars k3 d10 k3, PS), 19%.
For AAGTAGTTCTTCGGTT (sugars k3 d10 k3, PS), the target mRNA inhibition in the data set with MALAT1 amounted to 10%.
Same read-out and setting: the figure for CTTATGGAACTTGAAT (sugars k3 d10 k3, PS) is -5%; for TGCACTCGCTCCTTCC (sugars k3 d10 k3, PS) it is 33%.
The same measure, in the same setting: under AAGCACTCATATGCAA (sugars k3 d10 k3, PS) stands -2%; under CATATTTAACTTCCCC (sugars k3 d10 k3, PS), 25%; under TTACAAAACGAATTCA (sugars k3 d10 k3, PS), 10%.
Same read-out and setting: under AGCTGCAAACTTTAGA (sugars k3 d10 k3, PS) stands 26%.
Turning to CGAGTTCAAGTGGCCT (sugars k3 d10 k3, PS), the target mRNA inhibition with MALAT1 was determined as 18%.
On to AAATGGTAGATTCCGT (sugars k3 d10 k3, PS), for which, in the data set with MALAT1, the target mRNA inhibition was 60% and 62% and 50%.
Still for that read-out and setting: under TTTAGGATTCTAGACA (sugars k3 d10 k3, PS) stands 25%; under TTGACAAGCAATTAAC (sugars k3 d10 k3, PS), 7%.
Consider TCCAGTCCCTGAAGGT (sugars k3 d10 k3, PS), for which, in the data set with MALAT1, the target mRNA inhibition stood at 12%.
For AGTTTACCACCTTTTG (sugars k3 d10 k3, PS), in the data set with MALAT1, the target mRNA inhibition came out at 23%.
Still for that read-out and setting: under AATACTCTTCCAAGGA (sugars k3 d10 k3, PS) stands 15%; under CAGTCCTAGCTTCATC (sugars k3 d10 k3, PS), 9%.
As for CACCCAGAAGTGTTTA (sugars k3 d10 k3, PS), the target mRNA inhibition with MALAT1 is -4%.
The same measure, in the same setting: under TTACTTTCCATTACGC (sugars k3 d10 k3, PS) stands 16%; under CCTTTTAAAGTAGACC (sugars k3 d10 k3, PS), -22%.
Consider GGAGAGGCCAGTTGCG (sugars k3 d10 k3, PS), for which the target mRNA inhibition with MALAT1 was -10%.
Same read-out and setting: under GAAGTGTTTACACTGC (sugars k3 d10 k3, PS) stands 11%.
Still for that read-out and setting: the figure for TGAGATGGACATTGCC (sugars k3 d10 k3, PS) is 74% and 92%; for ATACCTTAACATCTTG (sugars k3 d10 k3, PS) it is 43%.
Same read-out and setting: the figure for TAATGTCAGCCCAGTA (sugars k3 d10 k3, PS) is 7%; for ACTATAGCATCTGTGG (sugars k3 d10 k3, PS) it is 9%; for AACAGCACAGCGGTAC (sugars k3 d10 k3, PS) it is 2%.
Regarding CCGCCGCCTTTGTGAG (sugars k3 d10 k3, PS), in the data set with MALAT1, the target mRNA inhibition amounted to 25%.
On to CCTTATTTAGAGGGCC (sugars k3 d10 k3, PS), for which the target mRNA inhibition with MALAT1 came to 33%.
The same measure, in the same setting: under AAGTCAAGCTCCTGAC (sugars k3 d10 k3, PS) stands 4%; under TACTGAAGAGCATTGG (sugars k3 d10 k3, PS), 71%; under ATGAAATGCCTCTGCA (sugars k3 d10 k3, PS), 13%.
